Laboratory results as given in PubChem BioAssay (NCI).
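GI50 = concentration required for 50% inhibition of growth. TGI: concentration producing complete growth inhibition.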

Key:
Assay in all cases: NCI-60 cell line screen, 384-well format
HCC-2998 colon = tested on: HCC-2998 colon
SK-OV-3 ovarian = tested on: SK-OV-3 ovarian
PC-3 prostate = tested on: PC-3 prostate
HL-60(TB) leukemia = tested on: HL-60(TB) leukemia
KM12 colon = tested on: KM12 colon
EKVX NSCLC = tested on: EKVX NSCLC
HCT-15 colon = tested on: HCT-15 colon
HOP-62 NSCLC = tested on: HOP-62 NSCLC
HT29 colon = tested on: HT29 colon
A549 NSCLC = tested on: A549 NSCLC
SK-MEL-2 melanoma = tested on: SK-MEL-2 melanoma
UACC-62 melanoma = tested on: UACC-62 melanoma
MDA-MB-435 melanoma = tested on: MDA-MB-435 melanoma
NCI-H226 lung = tested on: NCI-H226 lung
NCI-H460 NSCLC = tested on: NCI-H460 NSCLC
SF-295 CNS = tested on: SF-295 CNS
OVCAR-5 ovarian = tested on: OVCAR-5 ovarian
CCRF-CEM leukemia = tested on: CCRF-CEM leukemia
M14 melanoma = tested on: M14 melanoma
SF-539 CNS = tested on: SF-539 CNS
LOX IMVI melanoma = tested on: LOX IMVI melanoma
ACHN renal = tested on: ACHN renal
RXF 393 renal = tested on: RXF 393 renal
HCT-116 colon = tested on: HCT-116 colon
CAKI-1 renal = tested on: CAKI-1 renal
SW-620 colon = tested on: SW-620 colon
MDA-MB-468 breast = tested on: MDA-MB-468 breast
NCI/ADR-RES ovarian = tested on: NCI/ADR-RES ovarian
SNB-19 CNS = tested on: SNB-19 CNS
SK-MEL-5 melanoma = tested on: SK-MEL-5 melanoma
SN12C renal = tested on: SN12C renal
K-562 leukemia = tested on: K-562 leukemia
HS 578T breast = tested on: HS 578T breast
A498 renal = tested on: A498 renal
MCF7 breast = tested on: MCF7 breast
UACC-257 melanoma = tested on: UACC-257 melanoma
NCI-H522 lung = tested on: NCI-H522 lung
OVCAR-4 ovarian = tested on: OVCAR-4 ovarian
SK-MEL-28 melanoma = tested on: SK-MEL-28 melanoma
SF-268 CNS = tested on: SF-268 CNS
COLO 205 colon = tested on: COLO 205 colon
T-47D breast = tested on: T-47D breast
SR leukemia = tested on: SR leukemia
SNB-75 CNS = tested on: SNB-75 CNS
MALME-3M melanoma = tested on: MALME-3M melanoma
MDA-MB-231 breast = tested on: MDA-MB-231 breast
TK-10 renal = tested on: TK-10 renal
HOP-92 NSCLC = tested on: HOP-92 NSCLC
RPMI-8226 leukemia = tested on: RPMI-8226 leukemia
UO-31 renal = tested on: UO-31 renal
U251 glioblastoma = tested on: U251 glioblastoma
NCI-H23 lung = tested on: NCI-H23 lung
DU-145 prostate = tested on: DU-145 prostate
OVCAR-3 ovarian = tested on: OVCAR-3 ovarian
786-0 renal = tested on: 786-0 renal
NCI-H322M lung = tested on: NCI-H322M lung
BT-549 breast = tested on: BT-549 breast
IGROV1 ovarian = tested on: IGROV1 ovarian
MOLT-4 leukemia = tested on: MOLT-4 leukemia

Structure (SMILES): COc1nccc(-c2c(-c3ccc(F)cc3)ncn2C2CCC(O)CC2)n1 (stereo not drawn)
- GI50 (HCC-2998 colon): > 100 µM
- TGI (HCC-2998 colon): > 100 µM
- GI50 (SK-OV-3 ovarian): 62.5 µM
- TGI (SK-OV-3 ovarian): > 100 µM
- GI50 (PC-3 prostate): > 100 µM
- TGI (PC-3 prostate): > 100 µM
- GI50 (HL-60(TB) leukemia): 77 µM
- TGI (HL-60(TB) leukemia): > 100 µM
- GI50 (KM12 colon): > 100 µM
- TGI (KM12 colon): > 100 µM
- GI50 (EKVX NSCLC): > 100 µM
- TGI (EKVX NSCLC): > 100 µM
- GI50 (HCT-15 colon): 58.7 µM
- TGI (HCT-15 colon): > 100 µM
- GI50 (HOP-62 NSCLC): > 100 µM
- TGI (HOP-62 NSCLC): > 100 µM
- GI50 (HT29 colon): 46 µM
- TGI (HT29 colon): > 100 µM
- GI50 (A549 NSCLC): 39.2 µM
- TGI (A549 NSCLC): > 100 µM
- GI50 (SK-MEL-2 melanoma): > 100 µM
- TGI (SK-MEL-2 melanoma): > 100 µM
- GI50 (UACC-62 melanoma): > 100 µM
- TGI (UACC-62 melanoma): > 100 µM
- GI50 (MDA-MB-435 melanoma): > 100 µM
- TGI (MDA-MB-435 melanoma): > 100 µM
- GI50 (NCI-H226 lung): 91.2 µM
- TGI (NCI-H226 lung): > 100 µM
- GI50 (NCI-H460 NSCLC): 71.6 µM
- TGI (NCI-H460 NSCLC): > 100 µM
- GI50 (SF-295 CNS): > 100 µM
- TGI (SF-295 CNS): > 100 µM
- GI50 (OVCAR-5 ovarian): > 100 µM
- TGI (OVCAR-5 ovarian): > 100 µM
- GI50 (CCRF-CEM leukemia): 50 µM
- TGI (CCRF-CEM leukemia): > 100 µM
- GI50 (M14 melanoma): > 100 µM
- TGI (M14 melanoma): > 100 µM
- GI50 (SF-539 CNS): > 100 µM
- TGI (SF-539 CNS): > 100 µM
- GI50 (LOX IMVI melanoma): > 100 µM
- TGI (LOX IMVI melanoma): > 100 µM
- GI50 (ACHN renal): 36.3 µM
- TGI (ACHN renal): > 100 µM
- GI50 (RXF 393 renal): > 100 µM
- TGI (RXF 393 renal): > 100 µM
- GI50 (HCT-116 colon): > 100 µM
- TGI (HCT-116 colon): > 100 µM
- GI50 (CAKI-1 renal): 31.7 µM
- TGI (CAKI-1 renal): > 100 µM
- GI50 (SW-620 colon): > 100 µM
- TGI (SW-620 colon): > 100 µM
- GI50 (MDA-MB-468 breast): 13.2 µM
- TGI (MDA-MB-468 breast): > 100 µM
- GI50 (NCI/ADR-RES ovarian): > 100 µM
- TGI (NCI/ADR-RES ovarian): > 100 µM
- GI50 (SNB-19 CNS): > 100 µM
- TGI (SNB-19 CNS): > 100 µM
- GI50 (SK-MEL-5 melanoma): 90.3 µM
- TGI (SK-MEL-5 melanoma): > 100 µM
- GI50 (SN12C renal): > 100 µM
- TGI (SN12C renal): > 100 µM
- GI50 (K-562 leukemia): 36.1 µM
- TGI (K-562 leukemia): > 100 µM
- GI50 (HS 578T breast): > 100 µM
- TGI (HS 578T breast): > 100 µM
- GI50 (A498 renal): > 100 µM
- TGI (A498 renal): > 100 µM
- GI50 (MCF7 breast): 36.2 µM
- TGI (MCF7 breast): > 100 µM
- GI50 (UACC-257 melanoma): > 100 µM
- TGI (UACC-257 melanoma): > 100 µM
- GI50 (NCI-H522 lung): 22.6 µM
- TGI (NCI-H522 lung): 93.5 µM
- GI50 (OVCAR-4 ovarian): > 100 µM
- TGI (OVCAR-4 ovarian): > 100 µM
- GI50 (SK-MEL-28 melanoma): > 100 µM
- TGI (SK-MEL-28 melanoma): > 100 µM
- GI50 (SF-268 CNS): > 100 µM
- TGI (SF-268 CNS): > 100 µM
- GI50 (COLO 205 colon): > 100 µM
- TGI (COLO 205 colon): > 100 µM
- GI50 (T-47D breast): > 100 µM
- TGI (T-47D breast): > 100 µM
- GI50 (SR leukemia): 31.6 µM
- TGI (SR leukemia): > 100 µM
- GI50 (SNB-75 CNS): > 100 µM
- TGI (SNB-75 CNS): > 100 µM
- GI50 (MALME-3M melanoma): > 100 µM
- TGI (MALME-3M melanoma): > 100 µM
- GI50 (MDA-MB-231 breast): > 100 µM
- TGI (MDA-MB-231 breast): > 100 µM
- GI50 (TK-10 renal): 37.4 µM
- TGI (TK-10 renal): > 100 µM
- GI50 (HOP-92 NSCLC): > 100 µM
- TGI (HOP-92 NSCLC): > 100 µM
- GI50 (RPMI-8226 leukemia): 90.1 µM
- TGI (RPMI-8226 leukemia): > 100 µM
- GI50 (UO-31 renal): 31.4 µM
- TGI (UO-31 renal): > 100 µM
- GI50 (U251 glioblastoma): > 100 µM
- TGI (U251 glioblastoma): > 100 µM
- GI50 (NCI-H23 lung): > 100 µM
- TGI (NCI-H23 lung): > 100 µM
- GI50 (DU-145 prostate): > 100 µM
- TGI (DU-145 prostate): > 100 µM
- GI50 (OVCAR-3 ovarian): > 100 µM
- TGI (OVCAR-3 ovarian): > 100 µM
- GI50 ([…]-0 renal): 69.8 µM
- TGI (786-0 renal): > 100 µM
- GI50 (NCI-H322M lung): > 100 µM
- TGI (NCI-H322M lung): > 100 µM
- GI50 (BT-549 breast): > 100 µM
- TGI (BT-549 breast): > 100 µM
- GI50 (IGROV1 ovarian): 38.5 µM
- TGI (IGROV1 ovarian): > 100 µM
- GI50 (MOLT-4 leukemia): 29.5 µM
- TGI (MOLT-4 leukemia): > 100 µM
